# Laboratory results published in paper PMC3419607, “Effect of Alpinia zerumbet components on antioxidant and skin diseases-related enzymes” (BMC Complementary and Alternative Medicine, 2012).
# Experiments:
# [1] = Total antioxidant activity (ABTS) assay; details: ABTS radical scavenging, 6 min, 734 nm
# Experimental: The total antioxidant activity of test sample was measured with modified method as described previously. ABTS^·+ solution was generated by mixing 7 mM ABTS and 2.45 mM potassium persulfate (K2S2O8) in water, which was placed in the dark at room temperature for 16 h to give the complete oxidation of ABTS. Before using, the ABTS^·+ solution was diluted with water to get an absorbance of 0.700 ± 0.050 at 734 nm. Briefly, 1 ml of ABTS^·+ solution was added to 30 μl of test samples and mixed thoroughly. BHT was used as positive control and the sample solutions were used as controls. The reactive mixture was incubated at room temperature for 6 min and the absorbance was immediately recorded at 734 nm.
# (§1) The ability of the extracts to scavenge DPPH, ABTS^·+, PMS-NADH radicals were calculated by following formula:
# (§2) Radical scavenging (%) = [(O.Dcontrol – O.Dsample)/ O.Dcontrol] x 100,
# (§3) where O.D is the optical density in the presence or absence of the samples.
# [2] = DPPH radical scavenging activity assay; details: 30 min, 517 nm
# Experimental: The free radical scavenging activity was evaluated as described previously. Five hundred microlilters of the different concentration of test samples were mixed with 200 μl of 0.5 mM DPPH methanol solution and 500 μl of 0.1 M sodium acetate buffer (pH 5.5). After shaking, the mixture was incubated in the dark at room temperature for 30 min, and then the absorbance was measured at 517 nm. BHT was used as a positive control, while water and methanol were used as controls for calculation.
# as §1, §2, §3
# [3] = PMS-NADH system superoxide-radical scavenging assay; details: 560 nm
# Experimental: The superoxide scavenging activity was assayed following the method of Lau et al. with minor modifications. The reaction mixture contained 0.5 ml of 105 μM NADH, 0.5 ml of 66 μM NBT dissolved in 0.1 M phosphate buffer (pH 7.4) and 0.1 ml sample in different concentrations. The reaction was initiated by adding 0.5 ml of 30 μM PMS into the reaction mixture. Methanol and water were used as a control and BHT as a positive control. After 10 min, the reaction mixture reached to stable color, measurement of absorbance was conducted at 560 nm.
# as §1, §2, §3
# [4] = target: T1, hyaluronidase from bovine test (Bos taurus, UniProt Q2YDK3); assay: Hyaluronidase inhibition assay; assay type: biochemical; details: plant parts: aqueous extract
# T1 construct: from tissue; host or cells: bovine testes (printed 'bovine test')
# T1 sequence (Q2YDK3 36-553): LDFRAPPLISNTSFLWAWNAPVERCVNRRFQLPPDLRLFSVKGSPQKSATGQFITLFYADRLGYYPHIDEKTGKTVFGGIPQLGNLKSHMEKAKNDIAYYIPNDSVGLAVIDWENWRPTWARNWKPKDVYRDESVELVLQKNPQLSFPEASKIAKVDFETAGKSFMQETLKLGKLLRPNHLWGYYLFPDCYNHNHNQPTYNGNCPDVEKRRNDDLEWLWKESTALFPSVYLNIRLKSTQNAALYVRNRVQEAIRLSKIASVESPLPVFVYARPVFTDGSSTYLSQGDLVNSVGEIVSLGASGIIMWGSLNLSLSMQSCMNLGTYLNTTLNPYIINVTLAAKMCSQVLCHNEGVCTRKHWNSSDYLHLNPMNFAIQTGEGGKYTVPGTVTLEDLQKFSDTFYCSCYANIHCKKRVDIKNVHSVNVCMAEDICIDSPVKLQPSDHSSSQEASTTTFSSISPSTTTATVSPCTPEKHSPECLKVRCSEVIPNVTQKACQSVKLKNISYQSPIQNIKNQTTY
# [5] = target: Collagenase from Clostridium histolyticum (ChC); assay: Collagenase inhibition assay (FALGPA substrate); assay type: biochemical; details: plant parts: aqueous extract
# Experimental: Collagenase inhibition assay was performed by the method described previously which based on the hydrolysis of N-[3-(2-furyl)acryloyl]-Leu-Gly-Pro-Ala (FALGPA) by collagenase to produce FA-Leu and Gly-Pro-Ala. The assay was performed in 50 mM Tricine buffer (400 mM NaCl and 10 mM CaCl2, pH 7.5). Collagenase from Clostridium histolyticum (ChC) was dissolved in the buffer for use at an initial concentration of 0.8 units/ ml. The synthetic substrate, FALGPA, was dissolved in the Tricine buffer to 2 mM. Sample extracts were incubated with the enzyme in the buffer for 15 min before adding substrate to start reaction. The final reaction mixture (150 μl total volume) contained Tricine buffer, 0.8 mM of FALGPA, 0.1 units of ChC and 25 μg of test extracts. Controls were performed with water and methanol, while oleanolic acid as a positive control. After adding substrate for 20 min, collagenase activity was measured at 340 nm.
# The percentage inhibition for collagenase, elastase and hyaluronidase assays were calculated by:
# Enzyme inhibition activity (%) = (1– B/A) x 100, where A is the enzyme activity without sample and B is the activity in presence of the sample.
# [6] = target: T2, elastase from porcine pancreas (Sus scrofa, UniProt P00772); assay: Elastase inhibition assay (SANA substrate); assay type: biochemical; details: plant parts: aqueous extract
# T2 construct: from tissue; host or cells: porcine pancreas
# Source text: The inhibitory activity determined the intensity of color released during cleavage of SANA by the action of elastase.
# T2 sequence (P00772 27-266): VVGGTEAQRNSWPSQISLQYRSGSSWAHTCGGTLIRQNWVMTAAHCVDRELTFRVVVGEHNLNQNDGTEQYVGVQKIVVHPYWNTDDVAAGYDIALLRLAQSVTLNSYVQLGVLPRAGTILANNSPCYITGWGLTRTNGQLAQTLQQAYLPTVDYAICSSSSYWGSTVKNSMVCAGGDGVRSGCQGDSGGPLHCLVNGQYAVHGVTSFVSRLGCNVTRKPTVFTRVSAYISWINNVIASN
SMILES,Inhibitory effect (IC50) ABTS [1],Inhibitory effect (IC50) DPPH [2],Inhibitory effect (IC50) PMS-NADH [3],IC50 [4] [µM],IC50 collagenase inhibition [5] [µg/mL],IC50 [6] [µM]
"Cc1cc(C(C)(C)C)c(O)c(C(C)(C)C)c1 [BHT, tert-butyl hydroxytoluene, reference compound]",14.26 ± 0.16 a μg/mL,11.74 ± 0.15 a ^1 μg/mL,24.80 ± 0.98 a μg/mL,,,
"COc1cc(/C=C/c2ccccc2)oc(=O)c1 [DK, 5,6-dehydrokawain]",110.08 ± 3.34 µg/mL,122.14 ± 1.40 µg/mL,127.78 ± 4.75 µg/mL,85.3,24.93 ± 0.97,85
"CC1(C)CC[C@]2(C(=O)O)CC[C@]3(C)C(=CC[C@@H]4[C@@]5(C)CC[C@H](O)C(C)(C)[C@@H]5CC[C@]43C)[C@@H]2C1 [oleanolic acid, reference compound]",,,,,17.95 ± 0.23,
